target: T1, JAK3 (JH1 and JH2 domain) (Homo sapiens, UniProt P52333); test: JAK3 Kinase Assay (ELISA of peptide substrate phosphorylation); assay type: biochemical; conditions: purified JAK3 enzyme, 10 μM ATP, biotinylated peptide substrate, 1 hour at room temperature
T1 sequence (P52333 521-1111 limits assumed): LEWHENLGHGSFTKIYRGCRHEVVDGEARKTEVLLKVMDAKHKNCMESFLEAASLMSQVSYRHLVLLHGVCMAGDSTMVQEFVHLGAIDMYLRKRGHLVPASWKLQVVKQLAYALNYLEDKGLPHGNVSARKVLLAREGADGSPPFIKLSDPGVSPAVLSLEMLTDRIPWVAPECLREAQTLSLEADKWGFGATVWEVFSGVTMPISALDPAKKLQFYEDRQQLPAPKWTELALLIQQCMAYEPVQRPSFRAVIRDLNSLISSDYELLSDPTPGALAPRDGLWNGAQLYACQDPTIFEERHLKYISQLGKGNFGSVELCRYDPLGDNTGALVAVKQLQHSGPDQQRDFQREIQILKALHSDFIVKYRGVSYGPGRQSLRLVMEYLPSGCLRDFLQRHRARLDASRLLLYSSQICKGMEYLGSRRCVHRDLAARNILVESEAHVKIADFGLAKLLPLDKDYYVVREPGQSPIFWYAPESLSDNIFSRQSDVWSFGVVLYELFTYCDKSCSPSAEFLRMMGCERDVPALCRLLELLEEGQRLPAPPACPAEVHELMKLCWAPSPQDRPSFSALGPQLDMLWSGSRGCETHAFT
Procedure: JAK3 enzyme activity was assayed relative to enzyme phosphorylation using the method described herein.
Sf21 cells derived from the ovarian tissue of the fall armyworm Spodotera frugiperda were obtained from Pharmingen (San Diego, Calif.) and maintained at a temperature of about 26-28° C. in 1 l Bellco spinner flasks at 60-90 rpm. Cell viability was maintained at 95-100%, as determined by a tryptan blue dye exclusion test.
Sf21 cells were infected with a baculovirus expression vector for JAK3 (JH1 and JH2 domain). After 48 hours of infection, cells were harvested and lysed in Tris-saline (pH 7.6) containing 2% NP-40 and a combination of protease inhibitors (Aprotinin, Pepstatin A, Pefabloc, E-64, Leupeptin, and Benzamidine) on ice for 45 minutes.
The JAK3 enzyme was purified from the lysate using glutathione sepharose beads and the enzyme activity was assessed in Costar flat bottom EIA/RIA 96 well plates. The plates were coated with Neutravidin (110 μL) (Pierce Neutravidin Biotin-binding Protein 31000; 1 mg/mL 1:100) diluted in PBS for 1 hour at room temperature. The plates were washed with PBS-0.1% Tween (3 times) to remove unbound Neutravidin, then 1% BSA (150 NIL) in PBS was added to each well to block non-specific binding. The plates was incubated for 1 hour at room temperature and stored at −80° C. until use.
JAK3 enzyme solution (48 μL) in 1.25×TK buffer (62.5 mM HEPES pH 7.5, 12.5 mM MgCl2) containing DTT (42 mM) (Sigma, St. Louis, Mo.) was added to each well of a polypropylene 96 well plate.
A test compound (5 μL) diluted in DMSO (48 μL) and biotinylated peptide enzyme substrate (5 μg diluted in TK buffer containing 10 μM ATP) were added to each well using the double dispense feature of a multichannel electronic biohit. Control wells received DMSO vehicle (5 μL). The contents of the wells were mixed for approximately 8 seconds using a multitube vortexer and the reaction mixture was incubated for 1 hour at room temperature.
After incubation, an aliquot of reaction mixture (90 μL) was transferred into a washed Neutravidin coated plate. The plate was incubated for 15 minutes at room temperature and washed 3 times with PBS-T. PY99 anti-phosphotyrosine antibody (100 μL/well) (Santa Cruz #sc-7020HRP diluted 1:6000 in 1× antibody buffer) was added into each well and the plate was incubated for 40 minutes at room temperature. The antibody buffer contained 10% BSA, 100 mM Tris (pH 7.5), 1M NaCl and 1% Tween 20. The plate washed 3 times with PBS-T, then TMB (100 pLXSigma, St. Louis, Mo.) was added to the each well. The plate was incubated for another 40 mins at room temperature in the dark. The reaction was stopped by the addition of 1M H2SO4 (50 μL/well) and the optical density was read at 450/650 nm.
Test compounds were assayed in triplicate at 16 concentrations at half-log dilutions starting at 200 μM. A maximum and minimum signal for the assay was determined on each plate. The percent inhibition of a test compound was calculated according to the formula [formula]
For a series of test concentrations, the IC50 was derived by graphing percent inhibition against the log of the concentrations tested for a given compound. For those compounds without an IC50, the percent inhibition results are shown at a test concentration of 1 μM.

IC50 [nM]	Compound
115	O=C1NC(=O)c2c1c1c3ccccc3n3c1c1c2c2ccccc2n1CC(OC(=O)N1CCN(CCN2CCOCC2)CC1)CC3 (centres unmarked) [Cpd 56, 12,13-(2-{[4-(2-morpholin-4-yl-ethyl)piperazin-1-yl]carbonyloxy}-butan-1,4-yl)-12,13-dihydro-5,7-dioxo-6H-indolo[2,3-a]pyrrolo[3,4-c]carbazole]
175	O=C1NCc2c1c1c3ccccc3n3c1c1c2c2ccccc2n1CC(O)(COC(=O)N1CCN(c2ccc(O)cc2)CC1)C3 (centres unmarked) [Cpd 137, 12,13-(2-hydroxy-2-{[4-(4-hydroxy-phenyl)piperazin-1-yl]carbonyloxymethyl}-propan-1,3-yl)-6,7,12,13-tetrahydro-5-oxo-5H-indolo[2,3-a]pyrrolo[3,4-c]carbazole]
446	O=C1NC(=O)c2c1c1c3ccccc3n3c1c1c2c2ccccc2n1CC(OC(=O)N1CCCC1CN1CCCC1)CC3 (centres unmarked) [Cpd 52, 12,13-(2-{[2-(pyrrolidin-1-yl-methyl)pyrrolidin-1-yl]carbonyloxy}-butan-1,4-yl)-12,13-dihydro-5,7-dioxo-6H-indolo[2,3-a]pyrrolo[3,4-c]carbazole]
46	CN1CCC(N(C)C(=O)OC2Cn3c4ccccc4c4c5c(c6c7ccccc7n(c6c43)CC2O)C(=O)NC5=O)C1 (centres unmarked) [Cpd 108, 12,13-(2-{[N-methyl-N-(1-methyl-pyrrolidin-3-yl)]carbamoyloxy}-3-hydroxy-butan-1,4-yl)-12,13-dihydro-5,7-dioxo-6H-indolo[2,3-a]pyrrolo[3,4-c]carbazole]
54	O=C1NC(=O)c2c1c1c3ccccc3n3c1c1c2c2ccccc2n1CC(O)(C(=O)N1CCN(CC(=O)N2CCCC2)CC1)C(O)C3 (centres unmarked) [Cpd 133, 12,13-(2-{[4-(pyrrolidin-1-yl-carbonylmethyl)piperazin-1-yl]carbonyl}-2,3-dihydroxy-butan-1,4-yl)-12,13-dihydro-5,7-dioxo-6H-indolo[2,3-a]pyrrolo[3,4-c]carbazole]
5	O=C1NC(=O)c2c1c1c3ccccc3n3c1c1c2c2ccccc2n1CC(O)CC3 (centres unmarked) [Cpd 7, 12,13-(2-hydroxy-butan-1,4-yl)-12,13-dihydro-5,7-dioxo-6H-indolo[2,3-a]pyrrolo[3,4-c]carbazole]
693	CN1CCN(CCCNCc2ccc3c(c2)c2c4c(c5c6ccccc6n6c5c2n3CC(O)C(O)C6)CNC4=O)CC1 (centres unmarked) [Cpd 197, 3-{[3-(4-methyl-piperazin-1-yl)prop-1-yl]aminomethyl}-12,13-(2,3-dihydroxy-butan-1,4-yl)-6,7,12,13-tetrahydro-5-oxo-5H-indolo[2,3-a]pyrrolo[3,4-c]carbazole]
7360	O=C1NCc2c1c1c3ccccc3n3c1c1c2c2ccccc2n1CCC(OC(=O)N1CCN(c2ccc(O)cc2)CC1)CC3 (centres unmarked) [Cpd 181, 12,13-(3-{[4-(4-hydroxy-phenyl)piperazin-1-yl]carbonyloxy}-pentan-1,5-yl)-6,7,12,13-tetrahydro-5-oxo-5H-indolo[2,3-a]pyrrolo[3,4-c]carbazole]
677	CN(C)[C@H]1CCN(C(=O)OCC2Cn3c4ccccc4c4c5c(c6c7ccccc7n(c6c43)C2)C(=O)NC5)C1 (stereo partly drawn) [Cpd 171, 12,13-(2-{[(3S)-3-dimethylamino-pyrrolidin-1-yl]carbonyloxymethyl}-propan-1,3-yl)-6,7,12,13-tetrahydro-5-oxo-5H-indolo[2,3-a]pyrrolo[3,4-c]carbazole]
184	O=C1NC(=O)c2c1c1c3ccccc3n3c1c1c2c2ccccc2n1CC(OC(=O)N1CCCCC1)C(O)C3 (centres unmarked) [Cpd 99, 12,13-[2-(piperidin-1-yl-carbonyloxy)-3-hydroxy-butan-1,4-yl]-12,13-dihydro-5,7-dioxo-6H-indolo[2,3-a]pyrrolo[3,4-c]carbazole]
12	CC1(O)Cn2c3ccccc3c3c4c(c5c6ccccc6n(c5c32)CC1(C)O)C(=O)NC4 (centres unmarked) [Cpd 20, 12,13-(2,3-dimethyl-2,3-dihydroxy-butan-1,4-yl)-6,7,12,13-tetrahydro-5-oxo-5H-indolo[2,3-a]pyrrolo[3,4-c]carbazole]
95	CC1(C)OCC2(CO1)Cn1c3ccccc3c3c4c(c5c6ccccc6n(c5c31)C2)C(=O)NC4 [Cpd 26]
31	CC(C)NC(=O)OC1CCn2c3ccccc3c3c4c(c5c6ccccc6n(c5c32)C1)C(=O)NC4=O (centres unmarked) [Cpd 39, 12,13-[2-(prop-2-ylcarbamoyloxy)-butan-1,4-yl]-12,13-dihydro-5,7-dioxo-6H-indolo[2,3-a]pyrrolo[3,4-c]carbazole]
134	O=C(NCCc1ccccn1)OC1Cn2c3ccccc3c3c4c(c5c6ccccc6n(c5c32)CC1O)C(=O)NC4=O (centres unmarked) [Cpd 82, 12,13-{2-[(2-pyridin-2-yl-ethyl)carbamoyloxy]-3-hydroxy-butan-1,4-yl}-12,13-dihydro-5,7-dioxo-6H-indolo[2,3-a]pyrrolo[3,4-c]carbozole]
117	Cc1ccc(CNC(=O)OCC2(O)Cn3c4ccccc4c4c5c(c6c7ccccc7n(c6c43)C2)C(=O)NC5)o1 (centres unmarked) [Cpd 141, 12,13-(2-hydroxy-2-{[(5-methyl-furan-2-yl)methyl]carbamoyloxymethyl}-propan-1,3-yl)-6,7,12,13h-tetrahydro-5-oxo-5H-indolo[2,3-a]pyrrolo[3,4-c]carbazole]
25	CN(C)CCN(C)C(=O)OCC1(O)Cn2c3ccccc3c3c4c(c5c6ccccc6n(c5c32)C1)C(=O)NC4 (centres unmarked) [Cpd 148, 12,13-(2-hydroxy-2-{[N-methyl-N-(2-dimethylamino-ethyl)]carbamoyloxymethyl}-propan-1,3-yl)-6,7,12,13-tetrahydro-5-oxo-5H-indolo[2,3-a]pyrrolo[3,4-c]carbazole]
31	O=C1NCc2c1c1c3cc(/C=C/CNC4=NCCN4)ccc3n3c1c1c2c2ccccc2n1CC(CO)C3 (centres unmarked) [Cpd 221, 3-{(1E)-3-[(4,5-dihydro-1H-imidazol-2-yl)amino]-prop-1-en-1-yl}-12,13-(2-hydroxymethyl-propan-1,3-yl)-6,7,12,13-tetrahydro-5-oxo-5H-indolo[2,3-a]pyrrolo[3,4-c]carbazole]
72	C/C1=C(\C)Cn2c3ccccc3c3c4c(c5c6ccccc6n(c5c32)C1)CNC4=O [Cpd 4, 12,13-(2,3-dimethyl-but-2-en-1,4-yl)-6,7,12,13-tetrahydro-5-oxo-5H-indolo[2,3-a]pyrrolo[3,4-c]carbazole]

Compound	IC50 [nM]
CC(C)(C)OC(=O)N1CCC(NC(=O)OCC2(O)Cn3c4ccccc4c4c5c(c6c7ccccc7n(c6c43)C2)C(=O)NC5)CC1 (centres unmarked) [Cpd 177, 12,13-{2-hydroxy-2-[(1-t-butoxycarbonyl-piperidin-4-yl)carbamoyloxymethyl]-propan-1,3-yl}-6,7,12,13-tetrahydro-5-oxo-5H-indolo[2,3-a]pyrrolo[3,4-c]carbazole]	143
CC(C)(C)OC(=O)CNC(=O)OC1CCn2c3ccccc3c3c4c(c5c6ccccc6n(c5c32)C1)C(=O)NC4=O (centres unmarked) [Cpd 37, 12,13-{2-[(t-butoxycarbonylmethyl)carbamoyloxy]-butan-1,4-yl}-12,13-dihydro-5,7-dioxo-6H-indolo[2,3-a]pyrrolo[3,4-c]carbazole]	4
